From ChEMBL document CHEMBL6121023, “Discovery of proteolytically stable monocyte locomotion inhibitory factor peptide through systematic structural optimization” (Eur J Med Chem, 2025)
Calls of active or inactive are those of the source. No cut-off for these calls is given here. Positions of bridges follow the written chain, without caps; N, C: chain ends. Non-standard residues stand in square brackets, D forms with d. Residues, ends and D or L forms follow the SMILES beside them. ξ: configuration not given here. *: point of attachment. Propanoyl(3-(MeO(CH2CH2O)2)) = COCCOCCOCCC(=O)*; X1 = COCCOCCOCCOCCOCCOCCOCCC(=O)*; NMeQ = CN[C@@H](CCC(N)=O)C(=O)O; NMeN = CN[C@@H](CC(N)=O)C(=O)O; X2 = COCCOCCOCCOCCOCCC(=O)*; NMeC = CN[C@@H](CS)C(=O)O; NMeS = CN[C@@H](CO)C(=O)O; Heptanoyl = CCCCCCC(=O)*; Orn = NCCC[C@H](N)C(=O)O; ξNMeM = CNC(CCSC)C(=O)O; Pentanoyl = CCCCC(=O)*; ξM = CSCCC(N)C(=O)O

Tests used:
[1] = tested on: RAW264.7; test: Antiinflammatory activity in LPS-induced mouse RAW264.7 cells assessed as inhibition of TNF-alpha expression at 1 microg/ml preincubated with compound for 24 hrs followed by LPS addition for 6 hrs by ELISA method; type: functional, cell-based; conditions: dose 1.0 µg/ml, time 30.0 hrs
[2] = Cytotoxicity against mouse RAW264.7 cells assessed as cell viability at 1 microg/ml measured after 24 hrs by CCK-8 assay; type: toxicity, cell-based; conditions: at 1 µg/mL, read-out: Activity
[3] = tested on: RAW264.7; test: Antiinflammatory activity in LPS-induced mouse RAW264.7 cells assessed as inhibition of NO generation at 1 microg/ml preincubated with compound for 24 hrs followed by LPS addition for 6 hrs by DAF-FM diacetate probe based analysis; type: functional, cell-based; conditions: dose 1.0 µg/ml
[4] = tested on: RAW264.7; test: Antiinflammatory activity in LPS-induced mouse RAW264.7 cells assessed as […] in IL-1beta expression at 1 microg/ml preincubated with compound for 24 hrs followed by LPS addition for 6 hrs by ELISA method; type: functional, cell-based; conditions: dose 1.0 µg/ml, time 30.0 hrs
[5] = tested on: RAW264.7; test: Antiinflammatory activity in LPS-induced mouse RAW264.7 cells assessed as effect on IL-1beta level at 1 microg/ml preincubated with compound for 24 hrs followed by LPS addition for 6 hrs by ELISA method; type: functional, cell-based; conditions: dose 1.0 µg/ml, time 30.0 hrs
[6] = tested on: RAW264.7; test: Antiinflammatory activity in LPS-induced mouse RAW264.7 cells assessed as effect on NO level at 1 microg/ml preincubated with compound for 24 hrs followed by LPS addition for 6 hrs by DAF-FM diacetate probe based analysis; type: functional, cell-based; conditions: dose 1.0 µg/ml, time 30.0 hrs
[7] = tested on: RAW264.7; test: Antiinflammatory activity in LPS-induced mouse RAW264.7 cells assessed as effect on TNF-alpha level at 1 microg/ml preincubated with compound for 24 hrs followed by LPS addition for 6 hrs by ELISA method; type: functional, cell-based; conditions: dose 1.0 µg/ml, time 30.0 hrs
[8] = tested on: RAW264.7; test: Antiinflammatory activity in LPS-induced mouse RAW264.7 cells assessed as inhibition of IL-1beta expression at 1 microg/ml preincubated with compound for 24 hrs followed by LPS addition for 6 hrs by ELISA method; type: functional, cell-based; conditions: dose 1.0 µg/ml, time 30.0 hrs
[9] = tested on: Mus musculus; test: Anti-inflammatory activity against collagenase-induced osteoarthritis C57BL/6J mouse model assessed as improvement in cartilage thickness at 1 mg/kg, ip measured on day 14 by H and E staining based analysis; type: functional, organism-based; conditions: time 14.0 day
[10] = Stability in human serum measured upto 6 hrs by RP-HPLC analysis; type: ADME, cell-free
[11] = tested on: Mus musculus; test: Anti-inflammatory activity against collagenase-induced osteoarthritis C57BL/6J mouse model assessed as reduction in mankin score in articular cartilage at 1 mg/kg, ip measured on day 14; type: functional, organism-based; conditions: time 14.0 day
[12] = tested on: RAW264.7; test: Antiinflammatory activity in LPS-induced mouse RAW264.7 cells assessed as inhibition of NO expression at 1 microg/ml preincubated with compound for 24 hrs followed by LPS addition for 6 hrs by DAF-FM diacetate probe based analysis; type: functional, cell-based; conditions: dose 1.0 µg/ml, time 30.0 hrs
[13] = tested on: RAW264.7; test: Antiinflammatory activity in LPS-induced mouse RAW264.7 cells assessed as reduction in IL-1beta activity at 1 microg/ml preincubated with compound for 24 hrs followed by LPS addition for 6 hrs by ELISA method; type: functional, cell-based; conditions: dose 1.0 µg/ml, time 30.0 hrs

Row | Compound | Activity [1] | viability at 24 h, 1 microg/ml [2] | Activity [4] | Activity [8] | other results
1 | CSCCC(N)C(=O)N[C@@H](CCC(N)=O)C(=O)N[C@@H](CS)C(=O)N[C@@H](CC(N)=O)C(=O)N(C)[C@@H](CO)C(N)=O (some centres undefined) (H-[ξM]QCN[NMeS]-NH2) | Active | ~80% | Active | – | Activity [3]: inactive
2 | CCCCCCC(=O)N[C@@H](CCSC)C(=O)N[C@@H](CCC(N)=O)C(=O)N[C@@H](CS)C(=O)N[C@@H](CC(N)=O)C(=O)N[C@@H](CO)C(N)=O (Heptanoyl-MQCNS-NH2) | – | ~80% | – | Active | Activity [5]: Active; Activity [6]: Active; Activity [7]: Active
3 | CNC(CCSC)C(=O)N[C@@H](CCC(N)=O)C(=O)N[C@@H](CS)C(=O)N[C@@H](CC(N)=O)C(=O)N[C@@H](CO)C(N)=O (some centres undefined) (H-[ξNMeM]QCNS-NH2) | Active | ~80% | Active | – | Activity [3]: inactive
4 | COCCOCCOCCOCCOCCOCCOCCSC[C@@H](NC(=O)[C@@H](CCC(N)=O)NC(=O)[C@H](N)CCSC)C(=O)N[C@H](CC(N)=O)C(=O)N[C@H](CO)C(N)=O | Active | 88.8% | Active | – | Activity [3]: Active; Activity [9]: Active
5 | CSCC[C@H](N)C(=O)N[C@@H](CCC(N)=O)C(=O)N[C@@H](CS)C(=O)N[C@@H](CC(N)=O)C(=O)N[C@@H](CO)C(N)=O | Active | 82.2% | – | Active | Stability [10]: Stable; Activity [3]: Active; Activity [9]: Active; Activity [11]: Active
6 | CCCCC(=O)N[C@@H](CCSC)C(=O)N[C@@H](CCC(N)=O)C(=O)N[C@@H](CS)C(=O)N[C@@H](CC(N)=O)C(=O)N[C@@H](CO)C(N)=O (Pentanoyl-MQCNS-NH2) | – | ~80% | – | Active | Activity [5]: Active; Activity [6]: Active; Activity [7]: Active
7 | COCCOCCOCCSC[C@@H](NC(=O)[C@@H](CCC(N)=O)NC(=O)[C@H](N)CCSC)C(=O)N[C@H](CC(N)=O)C(=O)N[C@H](CO)C(N)=O | Active | ~80% | Active | – | –
8 | CSCC[C@H](N)C(=O)N[C@@H](CCC(N)=O)C(=O)N[C@H](CS)C(=O)N[C@@H](CC(N)=O)C(=O)N[C@@H](CO)C(N)=O | Active | ~80% | – | Active | Activity [12]: Active
9 | CSCC[C@H](N)C(=O)N[C@H]1CCCCNC(=O)C[C@@H](C(=O)N[C@@H](CO)C(N)=O)NC(=O)[C@H](CS)NC1=O (H-MKCDS-NH2; lactam 2-4) | inactive | ~80% | – | Active | –
10 | COCCOCCOCCC(=O)N[C@@H](CCSC)C(=O)N[C@@H](CCC(N)=O)C(=O)N[C@@H](CS)C(=O)N[C@@H](CC(N)=O)C(=O)N[C@@H](CO)C(N)=O ({Propanoyl(3-(MeO(CH2CH2O)2))}-MQCNS-NH2) | – | ~80% | – | – | Activity [13]: Active; Activity [5]: Active; Activity [6]: Active; Activity [7]: Active
11 | CSCC[C@H](N)C(=O)N[C@@H](CCC(N)=O)C(=O)N[C@@H](CS)C(=O)N[C@@H](CC(N)=O)C(=O)N[C@H](CO)C(N)=O | Active | ~80% | inactive | – | Activity [12]: Active
12 | COCCOCCOCCOCCOCCOCCOCCC(=O)N[C@@H](CCSC)C(=O)N[C@@H](CCC(N)=O)C(=O)N[C@@H](CS)C(=O)N[C@@H](CC(N)=O)C(=O)N[C@@H](CO)C(N)=O (X1-MQCNS-NH2) | – | ~80% | – | Active | Activity [5]: Active; Activity [6]: Active; Activity [7]: Active
13 | COCCOCCOCCOCCOCCSC[C@@H](NC(=O)[C@@H](CCC(N)=O)NC(=O)[C@H](N)CCSC)C(=O)N[C@H](CC(N)=O)C(=O)N[C@H](CO)C(N)=O | Active | ~80% | Active | – | –
14 | CSCC[C@H](N)C(=O)N[C@H]1CCC(=O)NCCC[C@@H](C(=O)N[C@@H](CO)C(N)=O)NC(=O)[C@H](CS)NC1=O (H-MEC[Orn]S-NH2; lactam 2-4) | – | ~80% | – | inactive | –
15 | CSCC[C@H](N)C(=O)N[C@H]1CCC(=O)NCCCC[C@@H](C(=O)N[C@@H](CO)C(N)=O)NC(=O)[C@H](CS)NC1=O (H-MECKS-NH2; lactam 2-4) | – | ~80% | – | inactive | –
16 | CSCC[C@H](N)C(=O)N[C@@H](CCC(N)=O)C(=O)N[C@@H](CS)C(=O)N[C@H](CC(N)=O)C(=O)N[C@@H](CO)C(N)=O | Active | ~80% | inactive | – | Activity [12]: Active
17 | CSCC[C@@H](N)C(=O)N[C@H]1CC(=O)NCCCC[C@@H](C(=O)N[C@@H](CO)C(N)=O)NC(=O)[C@H](CS)NC1=O | – | ~80% | – | inactive | –
18 | CSCC[C@H](N)C(=O)N[C@H]1CCCNC(=O)CC[C@@H](C(=O)N[C@@H](CO)C(N)=O)NC(=O)[C@H](CS)NC1=O (H-M[Orn]CES-NH2; lactam 2-4) | – | 81.9% | – | Active | Activity [9]: Active
19 | CSCC[C@@H](N)C(=O)N[C@@H](CCC(N)=O)C(=O)N[C@@H](CS)C(=O)N[C@@H](CC(N)=O)C(=O)N[C@@H](CO)C(N)=O | Active | 86.8% | – | Active | Activity [12]: Active; Activity [9]: Active
20 | CSCC[C@@H](N)C(=O)N[C@H]1CC(=O)NCCC[C@@H](C(=O)N[C@@H](CO)C(N)=O)NC(=O)[C@H](CS)NC1=O | – | ~80% | – | inactive | –
21 | CSCCC(N)C(=O)N[C@@H](CCC(N)=O)C(=O)N[C@@H](CS)C(=O)N(C)[C@@H](CC(N)=O)C(=O)N[C@@H](CO)C(N)=O (some centres undefined) (H-[ξM]QC[NMeN]S-NH2) | Active | ~80% | Active | – | Activity [3]: inactive
22 | COCCOCCOCCOCCOCCC(=O)N[C@@H](CCSC)C(=O)N[C@@H](CCC(N)=O)C(=O)N[C@@H](CS)C(=O)N[C@@H](CC(N)=O)C(=O)N[C@@H](CO)C(N)=O (X2-MQCNS-NH2) | – | ~80% | – | – | Activity [13]: Active; Activity [5]: Active; Activity [6]: Active; Activity [7]: Active
23 | CSCC[C@H](N)C(=O)N[C@H](CCC(N)=O)C(=O)N[C@@H](CS)C(=O)N[C@@H](CC(N)=O)C(=O)N[C@@H](CO)C(N)=O | Active | ~80% | inactive | – | Activity [12]: Active
24 | CSCCC(N)C(=O)N(C)[C@@H](CCC(N)=O)C(=O)N[C@@H](CS)C(=O)N[C@@H](CC(N)=O)C(=O)N[C@@H](CO)C(N)=O (some centres undefined) (H-[ξM][NMeQ]CNS-NH2) | Active | 82.9% | Active | – | Activity [3]: Active; Activity [9]: Active
25 | CSCC[C@H](N)C(=O)N[C@H]1CCCNC(=O)C[C@@H](C(=O)N[C@@H](CO)C(N)=O)NC(=O)[C@H](CS)NC1=O (H-M[Orn]CDS-NH2; lactam 2-4) | – | ~80% | – | Active | –
26 | CSCC[C@H](NC(C)=O)C(=O)N[C@@H](CCC(N)=O)C(=O)N[C@@H](CS)C(=O)N[C@@H](CC(N)=O)C(=O)N[C@@H](CO)C(N)=O (Ac-MQCNS-NH2) | – | ~80% | – | Active | Activity [5]: Active; Activity [6]: Active; Activity [7]: Active
27 | CSCC[C@H](N)C(=O)N[C@H]1CCCCNC(=O)CC[C@@H](C(=O)N[C@@H](CO)C(N)=O)NC(=O)[C@H](CS)NC1=O (H-MKCES-NH2; lactam 2-4) | – | ~80% | – | Active | Activity [3]: inactive
28 | CSCCC(N)C(=O)N[C@@H](CCC(N)=O)C(=O)N(C)[C@@H](CS)C(=O)N[C@@H](CC(N)=O)C(=O)N[C@@H](CO)C(N)=O (some centres undefined) (H-[ξM]Q[NMeC]NS-NH2) | Active | ~80% | Active | – | Activity [3]: inactive
